Experimental data reported in the supplement of paper PMC10307832.

Tests used:
Assay in all cases: relative viability (nuclei count vs DMSO), 5 days (fraction); higher = more cells survive
OSI-027 + Alpelisib = compound: COc1cccc2cc(-c3nc([C@H]4CC[C@H](C(=O)O)CC4)n4ncnc(N)c34)[nH]c12 [OSI-027] + Cc1nc(NC(=O)N2CCC[C@H]2C(N)=O)sc1-c1ccnc(C(C)(C)C(F)(F)F)c1 [Alpelisib] (partner 2 µM)
In short: (§1)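 Relative viability divides the nuclei count in treated wells by that in vehicle wells. Lung cancer cell lines were seeded in 1536-well plates, dosed by pin tool the next day, and fixed and stained after 5 days in one step with final 0.05% Triton X-100, 1% formaldehyde and 1 ug/ml Hoechst. Dosing was a single drug or a fixed anchor-drug dose plus five library-drug doses (not always all listed) in √10 steps, and values are medians of duplicate plates imaged at 4×.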

OSI-027 + Trametinib = compound: COc1cccc2cc(-c3nc([C@H]4CC[C@H](C(=O)O)CC4)n4ncnc(N)c34)[nH]c12 [OSI-027] + CC(=O)Nc1cccc(-n2c(=O)n(C3CC3)c(=O)c3c(Nc4ccc(I)cc4F)n(C)c(=O)c(C)c32)c1 [Trametinib] (partner 0.02 µM)
In short: as §1

Alpelisib + Trametinib = compound: Cc1nc(NC(=O)N2CCC[C@H]2C(N)=O)sc1-c1ccnc(C(C)(C)C(F)(F)F)c1 [Alpelisib] + CC(=O)Nc1cccc(-n2c(=O)n(C3CC3)c(=O)c3c(Nc4ccc(I)cc4F)n(C)c(=O)c(C)c32)c1 [Trametinib] (partner 0.02 µM)
In short: as §1

Alpelisib + Palbociclib = compound: Cc1nc(NC(=O)N2CCC[C@H]2C(N)=O)sc1-c1ccnc(C(C)(C)C(F)(F)F)c1 [Alpelisib] + CC(=O)c1c(C)c2cnc(Nc3ccc(N4CCNCC4)cn3)nc2n(C2CCCC2)c1=O [Palbociclib] (partner 0.5 µM)
In short: as §1

## HCC-366
OSI-027 + Alpelisib; first compound 0.01 µM
  relative viability: 0.373
OSI-027 + Alpelisib; first compound 0.03162 µM
  relative viability: 0.423
OSI-027 + Alpelisib; first compound 0.1 µM
  relative viability: 0.256
OSI-027 + Alpelisib; first compound 0.3162 µM
  relative viability: 0.243
OSI-027 + Alpelisib; first compound 1 µM
  relative viability: 0.1
OSI-027 + Trametinib; first compound 0.01 µM
  relative viability: 0.333
OSI-027 + Trametinib; first compound 0.03162 µM
  relative viability: 0.433
OSI-027 + Trametinib; first compound 0.1 µM
  relative viability: 0.454
OSI-027 + Trametinib; first compound 0.3162 µM
  relative viability: 0.282
OSI-027 + Trametinib; first compound 1 µM
  relative viability: 0.195
Alpelisib + Trametinib; first compound 0.04 µM
  relative viability: 0.337
Alpelisib + Trametinib; first compound 0.1265 µM
  relative viability: 0.289
Alpelisib + Trametinib; first compound 0.4 µM
  relative viability: 0.233
Alpelisib + Trametinib; first compound 1.265 µM
  relative viability: 0.138
Alpelisib + Trametinib; first compound 4 µM
  relative viability: 0.13
Alpelisib + Palbociclib; first compound 0.04 µM
  relative viability: 0.421
Alpelisib + Palbociclib; first compound 0.1265 µM
  relative viability: 0.356
Alpelisib + Palbociclib; first compound 0.4 µM
  relative viability: 0.36
Alpelisib + Palbociclib; first compound 1.265 µM
  relative viability: 0.247
Alpelisib + Palbociclib; first compound 4 µM
  relative viability: 0.162

## HCC-827
OSI-027 + Alpelisib; first compound 0.01 µM
  relative viability: 0.871
OSI-027 + Alpelisib; first compound 0.03162 µM
  relative viability: 1.03
OSI-027 + Alpelisib; first compound 0.1 µM
  relative viability: 0.921
OSI-027 + Alpelisib; first compound 0.3162 µM
  relative viability: 0.736
OSI-027 + Alpelisib; first compound 1 µM
  relative viability: 0.281
OSI-027 + Trametinib; first compound 0.01 µM
  relative viability: 0.555
OSI-027 + Trametinib; first compound 0.03162 µM
  relative viability: 0.491
OSI-027 + Trametinib; first compound 0.1 µM
  relative viability: 0.45
OSI-027 + Trametinib; first compound 0.3162 µM
  relative viability: 0.433
OSI-027 + Trametinib; first compound 1 µM
  relative viability: 0.309
Alpelisib + Trametinib; first compound 0.04 µM
  relative viability: 0.547
Alpelisib + Trametinib; first compound 0.1265 µM
  relative viability: 0.504
Alpelisib + Trametinib; first compound 0.4 µM
  relative viability: 0.492
Alpelisib + Trametinib; first compound 1.265 µM
  relative viability: 0.401
Alpelisib + Trametinib; first compound 4 µM
  relative viability: 0.33
Alpelisib + Palbociclib; first compound 0.04 µM
  relative viability: 0.509
Alpelisib + Palbociclib; first compound 0.1265 µM
  relative viability: 0.489
Alpelisib + Palbociclib; first compound 0.4 µM
  relative viability: 0.485
Alpelisib + Palbociclib; first compound 1.265 µM
  relative viability: 0.41
Alpelisib + Palbociclib; first compound 4 µM
  relative viability: 0.386

## HOP-62
OSI-027 + Alpelisib; first compound 0.01 µM
  relative viability: 1.13
OSI-027 + Alpelisib; first compound 0.03162 µM
  relative viability: 0.881
OSI-027 + Alpelisib; first compound 0.1 µM
  relative viability: 0.934
OSI-027 + Alpelisib; first compound 0.3162 µM
  relative viability: 0.81
OSI-027 + Alpelisib; first compound 1 µM
  relative viability: 0.333
OSI-027 + Trametinib; first compound 0.01 µM
  relative viability: 0.383
OSI-027 + Trametinib; first compound 0.03162 µM
  relative viability: 0.347
OSI-027 + Trametinib; first compound 0.1 µM
  relative viability: 0.375
OSI-027 + Trametinib; first compound 0.3162 µM
  relative viability: 0.329
OSI-027 + Trametinib; first compound 1 µM
  relative viability: 0.294
Alpelisib + Trametinib; first compound 0.04 µM
  relative viability: 0.353
Alpelisib + Trametinib; first compound 0.1265 µM
  relative viability: 0.376
Alpelisib + Trametinib; first compound 0.4 µM
  relative viability: 0.434
Alpelisib + Trametinib; first compound 1.265 µM
  relative viability: 0.384
Alpelisib + Trametinib; first compound 4 µM
  relative viability: 0.384
Alpelisib + Palbociclib; first compound 0.04 µM
  relative viability: 0.43
Alpelisib + Palbociclib; first compound 0.1265 µM
  relative viability: 0.425
Alpelisib + Palbociclib; first compound 0.4 µM
  relative viability: 0.508
Alpelisib + Palbociclib; first compound 1.265 µM
  relative viability: 0.309
Alpelisib + Palbociclib; first compound 4 µM
  relative viability: 0.417

## IA-LM
OSI-027 + Alpelisib; first compound 0.01 µM
  relative viability: 0.791
OSI-027 + Alpelisib; first compound 0.03162 µM
  relative viability: 0.686
OSI-027 + Alpelisib; first compound 0.1 µM
  relative viability: 0.455
OSI-027 + Alpelisib; first compound 0.3162 µM
  relative viability: 0.322
OSI-027 + Alpelisib; first compound 1 µM
  relative viability: 0.113

## LC-2-ad
OSI-027 + Alpelisib; first compound 0.01 µM
  relative viability: 0.886
OSI-027 + Alpelisib; first compound 0.03162 µM
  relative viability: 0.876
OSI-027 + Alpelisib; first compound 0.1 µM
  relative viability: 0.723
OSI-027 + Alpelisib; first compound 0.3162 µM
  relative viability: 0.74
OSI-027 + Alpelisib; first compound 1 µM
  relative viability: 0.304
OSI-027 + Trametinib; first compound 0.01 µM
  relative viability: 0.903
OSI-027 + Trametinib; first compound 0.03162 µM
  relative viability: 0.872
OSI-027 + Trametinib; first compound 0.1 µM
  relative viability: 0.945
OSI-027 + Trametinib; first compound 0.3162 µM
  relative viability: 0.927
OSI-027 + Trametinib; first compound 1 µM
  relative viability: 0.694
Alpelisib + Trametinib; first compound 0.04 µM
  relative viability: 0.902
Alpelisib + Trametinib; first compound 0.1265 µM
  relative viability: 0.93
Alpelisib + Trametinib; first compound 0.4 µM
  relative viability: 0.968
Alpelisib + Trametinib; first compound 1.265 µM
  relative viability: 0.764
Alpelisib + Trametinib; first compound 4 µM
  relative viability: 0.738
Alpelisib + Palbociclib; first compound 0.04 µM
  relative viability: 0.547
Alpelisib + Palbociclib; first compound 0.1265 µM
  relative viability: 0.47
Alpelisib + Palbociclib; first compound 0.4 µM
  relative viability: 0.467
Alpelisib + Palbociclib; first compound 1.265 µM
  relative viability: 0.404
Alpelisib + Palbociclib; first compound 4 µM
  relative viability: 0.409

## LCLC-97TM1
OSI-027 + Alpelisib; first compound 0.01 µM
  relative viability: 0.208
OSI-027 + Alpelisib; first compound 0.03162 µM
  relative viability: 0.207
OSI-027 + Alpelisib; first compound 0.1 µM
  relative viability: 0.203
OSI-027 + Alpelisib; first compound 0.3162 µM
  relative viability: 0.145
OSI-027 + Alpelisib; first compound 1 µM
  relative viability: 0.123
OSI-027 + Trametinib; first compound 0.01 µM
  relative viability: 0.168
OSI-027 + Trametinib; first compound 0.03162 µM
  relative viability: 0.182
OSI-027 + Trametinib; first compound 0.1 µM
  relative viability: 0.157
OSI-027 + Trametinib; first compound 0.3162 µM
  relative viability: 0.147
OSI-027 + Trametinib; first compound 1 µM
  relative viability: 0.168
Alpelisib + Trametinib; first compound 0.04 µM
  relative viability: 0.194
Alpelisib + Trametinib; first compound 0.1265 µM
  relative viability: 0.167
Alpelisib + Trametinib; first compound 0.4 µM
  relative viability: 0.165
Alpelisib + Trametinib; first compound 1.265 µM
  relative viability: 0.133
Alpelisib + Trametinib; first compound 4 µM
  relative viability: 0.159
Alpelisib + Palbociclib; first compound 0.04 µM
  relative viability: 0.206
Alpelisib + Palbociclib; first compound 0.1265 µM
  relative viability: 0.177
Alpelisib + Palbociclib; first compound 0.4 µM
  relative viability: 0.183
Alpelisib + Palbociclib; first compound 1.265 µM
  relative viability: 0.119
Alpelisib + Palbociclib; first compound 4 µM
  relative viability: 0.0948

## LCLC-103H
OSI-027 + Alpelisib; first compound 0.01 µM
  relative viability: 0.852
OSI-027 + Alpelisib; first compound 0.03162 µM
  relative viability: 0.922
OSI-027 + Alpelisib; first compound 0.1 µM
  relative viability: 0.991
OSI-027 + Alpelisib; first compound 0.3162 µM
  relative viability: 0.877
OSI-027 + Alpelisib; first compound 1 µM
  relative viability: 0.767
OSI-027 + Trametinib; first compound 0.01 µM
  relative viability: 0.708
OSI-027 + Trametinib; first compound 0.03162 µM
  relative viability: 0.645
OSI-027 + Trametinib; first compound 0.1 µM
  relative viability: 0.65
OSI-027 + Trametinib; first compound 0.3162 µM
  relative viability: 0.609
OSI-027 + Trametinib; first compound 1 µM
  relative viability: 0.689
Alpelisib + Trametinib; first compound 0.04 µM
  relative viability: 0.669
Alpelisib + Trametinib; first compound 0.1265 µM
  relative viability: 0.693
Alpelisib + Trametinib; first compound 0.4 µM
  relative viability: 0.646
Alpelisib + Trametinib; first compound 1.265 µM
  relative viability: 0.567
Alpelisib + Trametinib; first compound 4 µM
  relative viability: 0.475
Alpelisib + Palbociclib; first compound 0.04 µM
  relative viability: 0.451
Alpelisib + Palbociclib; first compound 0.1265 µM
  relative viability: 0.489
Alpelisib + Palbociclib; first compound 0.4 µM
  relative viability: 0.457
Alpelisib + Palbociclib; first compound 1.265 µM
  relative viability: 0.427
Alpelisib + Palbociclib; first compound 4 µM
  relative viability: 0.37

## LK-2
OSI-027 + Alpelisib; first compound 0.01 µM
  relative viability: 1.18
OSI-027 + Alpelisib; first compound 0.03162 µM
  relative viability: 0.835
OSI-027 + Alpelisib; first compound 0.1 µM
  relative viability: 0.84
OSI-027 + Alpelisib; first compound 0.3162 µM
  relative viability: 0.321
OSI-027 + Alpelisib; first compound 1 µM
  relative viability: 0.165
OSI-027 + Trametinib; first compound 0.01 µM
  relative viability: 0.766
OSI-027 + Trametinib; first compound 0.03162 µM
  relative viability: 0.578
OSI-027 + Trametinib; first compound 0.1 µM
  relative viability: 0.594
OSI-027 + Trametinib; first compound 0.3162 µM
  relative viability: 0.406
OSI-027 + Trametinib; first compound 1 µM
  relative viability: 0.221
Alpelisib + Trametinib; first compound 0.04 µM
  relative viability: 0.633
Alpelisib + Trametinib; first compound 0.1265 µM
  relative viability: 0.829
Alpelisib + Trametinib; first compound 0.4 µM
  relative viability: 0.738
Alpelisib + Trametinib; first compound 1.265 µM
  relative viability: 0.384
Alpelisib + Trametinib; first compound 4 µM
  relative viability: 0.365
Alpelisib + Palbociclib; first compound 0.04 µM
  relative viability: 0.653
Alpelisib + Palbociclib; first compound 0.1265 µM
  relative viability: 0.645
Alpelisib + Palbociclib; first compound 0.4 µM
  relative viability: 0.499
Alpelisib + Palbociclib; first compound 1.265 µM
  relative viability: 0.322
Alpelisib + Palbociclib; first compound 4 µM
  relative viability: 0.314
